Measurements as given in ChEMBL document CHEMBL1127689, “Novel 4-(aryloxy)tetrahydropyridine analogs of MPTP as monoamine oxidase A and B substrates” (J Med Chem, 1994).

Test: Relative specificity for human MAO-A and bovine MAO-B
For `CCCCc1ccc(OC2=CCN(C)CC2)cc1`, the Selectivity was 1.54. In the case of `CN1CC=C(Oc2ccc3ccccc3c2)CC1`, the Selectivity is reported as 2.21. Molecule `CN1CC=C(Cc2ccccc2)CC1` has a Selectivity of 0.11. `CN1CC=C(Cc2ccc3ccccc3c2)CC1` gave a Selectivity of 10.8. With `CN1CC=C(Oc2ccc(-c3ccccc3)cc2)CC1` the Selectivity was 4.72. With `CN1CC=C(c2ccccc2)CC1` the Selectivity was 0.27. `CN1CC=C(Oc2ccc(Cl)cc2Cl)CC1` gave a Selectivity of 2.47. Work on `CN1CC=C(Cc2cccc3ccccc23)CC1` yielded a Selectivity of 24.7. With `CN1CC=C(Oc2ccccc2)CC1` the Selectivity was 0.57. For `CN1CC=C(Oc2cccc3ccccc23)CC1`, the Selectivity was 2.77. In the case of `CN1CC=C(Oc2ccc(C(C)(C)C)cc2)CC1`, the Selectivity is reported as 2.17.
